In patent US4439434A, “Cephalosporin derivative and pharmaceutical composition containing the derivative” (Kureha Kagaku Kogyo Kabushiki Kaisha, priority 1981, dated 1984):
Converted amounts (≈) assume the structure as drawn.

Experiments:
[1] = tested on: Pseudomonas aeruginosa; test: Effect on the intestinal bacterial colonies: Pseudomonas aeruginosa in feces; assay type: in vivo; settings: mice, oral 500 mg/kg/day for two consecutive days, feces one day after administration
Experimental: (§1) Each of the cephalosporin derivatives of the invention prepared in Examples 1 to 10 was orally administered to mice (one group consisting of five female ICR mice of 6-week-old) for two consecutive days at a dose of 500 mg/kg/day.
(§2) Before and one day after the administration, feces of each mouse were collected and diluted with an anaerobic diluent (phosphoric buffer solution) of 100 times volume and the diluted feces were ground. 0.1 ml of the diluted and ground feces was smeared on each culture medium shown in Table 1 and cultured aerobically or anaerobically (according to the anaerobic glove box method) under each condition shown in Table 1 and the number of each bacterium shown in Table 1 was counted.
NAC agar aerobic, 37° C.,

[2] = tested on: Lactobacillus acidophilus; test: Effect on the intestinal bacterial colonies: Lactobacillus acidophilus in feces; assay type: in vivo; settings: mice; for Logarithmic value of the number of bacterial cells per one g of feces, L. acidophilus: oral 500 mg/kg/day for two consecutive days, feces one day after administration
Experimental: as §1, §2
Lactobacillus acidophilus
LBS agar anaerobic, 37° C.,

[3] = tested on: Staphylococcus aureus IAM 1011; test: Antibacterial activity (MIC, agar plate) against Staph. aureus; assay type: cell-based; settings: Staphylococcus aureus IAM 1011, Mueller-Hinton agar, 37° C., 18 to 24 hours; unit assumed
Experimental: (§3) Antibacterial activity of each of the cephalosporin derivatives of the invention prepared in Examples 1 to 10 was examined against the following two bacteria according to the standard method of Japan Society of Chemitherapy: Escherichia coli IFO 12734 and Staphylococcus aureus IAM 1011.
(§4) Each bacterial strain was inoculated into the Mueller-Hinton's culture medium and cultured at 37° C. for 18 to 48 hours. The cultured medium was diluted so as to contain 1×10^6 cells of the bacteria per one ml, and the obtained medium was used as the bacterial specimen.
(§5) Agar plates were prepared by adding one part by weight of each solution of the cephalosporin derivative of the invention at a predetermined concentration to nine parts by weight of Mueller-Hinton's culture medium.
(§6) A loopful amount of the bacterial specimen prepared above was smeared to make a streak of about 2 cm on each agar plate prepared above and cultured at 37° C. for 18 to 24 hours.
(§7) The minimum concentration for completely inhibiting proliferation of the bacteria (referred to as MIC) was determined.

[4] = tested on: Streptococcus spp.; test: Effect on the intestinal bacterial colonies: Streptococcus spp. in feces; assay type: in vivo; settings: mice, oral 500 mg/kg/day for two consecutive days, feces one day after administration
Experimental: as §1, §2
TATAC agar aerobic, 37° C.,

[5] = tested on: Escherichia coli IFO 12734; test: Antibacterial activity (MIC, agar plate) against E. coli; assay type: cell-based; settings: Escherichia coli IFO 12734, Mueller-Hinton agar, 37° C., 18 to 24 hours; unit assumed
Experimental: as §3, §4, §5, §6, §7

[6] = tested on: Bacteroides; test: Effect on the intestinal bacterial colonies: Bacteroides in feces; assay type: in vivo; settings: mice, oral 500 mg/kg/day for two consecutive days, feces one day after administration
Experimental: as §1, §2
Bacteroides NBGT agar anaerobic, 37° C.,

[7] = tested on: Staphylococcus aureus IAM 1011; test: Activation by rat liver homogenate (S-9 mix), proliferation-inhibiting circle, penicillin cup method; assay type: cell-based; settings: incubated with rat liver S-9 mix, 37° C. 20 min; circle diameter relative to the starting compound
Experimental: As an activating enzyme of metabolism, a rat liver homogenate (S-9, manufactured by Oriental Yeast Company, Japan) was used in the following composition per 1 ml (hereinafter referred to as S-9 mix). 0.1 ml of the solution of each of the cephalosporin derivatives of the invention prepared in Examples 1 to 10 at a concentration of 100 μg/ml was mixed with 0.9 ml of S-9 mix or 0.9 ml of 0.1 M phosphoric buffer solution (as a control) and the obtained mixture was incubated at 37° C. for 20 min. with shaking. Staphylococcus aureus IAM 1011 was inoculated into a Mueller-Hinton's culture medium and cultured at 37° C. for 18 hours. The culture medium was adjusted to a cell concentration of 1×10^8 per 1 ml and mixed with 50 times by volume of Mueller-Hinton's agar culture medium to obtain an agar plate. A penicillin cup of 8 mm in diameter was placed on the agar plate prepared above, and into the cup 0.1 ml of the mixture containing the cephalosporin derivative prepared above was introduced and allowed to stand at 4° C. for 2 hours, and then cultured at 37° C. for 18 hours to measure the diameter of a circle in which the proliferation of bacteria was inhibited (proliferation-inhibiting circle). In Table 4, the proliferation-inhibiting index is shown in the ratio (%) of the diameter of the proliferation-inhibiting circle obtained by using each of the cephalosporin derivatives of the invention to that obtained by using each of the starting compound in preparing each of the cephalosporin derivatives of the invention.

[8] = tested on: Lactobacillus bifidus; test: Effect on the intestinal bacterial colonies: Lactobacillus bifidus in feces; assay type: in vivo; settings: mice, oral 500 mg/kg/day for two consecutive days, feces one day after administration
Experimental: as §1, §2
BS agar anaerobic, 37° C.,

[9] = tested on: Escherichia coli; test: Effect on the intestinal bacterial colonies: Escherichia coli in feces; assay type: in vivo; settings: mice; for Logarithmic value of the number of bacterial cells per one g of feces, E. coli: oral 500 mg/kg/day for two consecutive days, feces one day after administration
Experimental: as §1, §2
DHL agar aerobic, 37° C.,

[10] = oral 500 mg/kg/day for two days, feces

Row | Structure (SMILES) | Logarithmic value of the number of bacterial cells per one g of feces, Ps. aeruginosa [1] | Logarithmic value of the number of bacterial cells per one g of feces, L. acidophilus [2] | MIC Staph. aureus [3] | Logarithmic value of the number of bacterial cells per one g of feces, Strept. spp. [4] | MIC E. coli [5] | Logarithmic value of the number of bacterial cells per one g of feces, Bacteroides [6] | Proliferation-inhibiting index (%) After adding S-9 mix [7] | Logarithmic value of the number of bacterial cells per one g of feces, L. bifidus [8] | Logarithmic value of the number of bacterial cells per one g of feces, E. coli [9] | change in the number of Lactobacillus acidophilus [2, 10] | change in the number of Escherichia coli as compared to that before administration [9, 10]
1 | CC(=O)OCC1=C(C(=O)Nc2ccc(C(=O)NCC(=O)O)cc2)N2C(=O)C(NC(=O)Cc3cccs3)C2SC1 (centres unmarked) [Example 8, N-(4-carboxymethylcarbamoylphenyl)-7-(thienyl-2-acetamido)cephalosporanic acid amide] | < 3.0 | 9.1 | 12.5 µg/mL (≈ 21.8 µM) | 6.8 | ≥ 100 µg/mL | 8.1 | ++ (33-66) | 8.5 | 6.4 |  | 
2 | COC(=O)c1ccccc1NC(=O)C1=C(COC(C)=O)CSC2C(NC(=O)Cc3cccs3)C(=O)N12 (centres unmarked) [Example 10, N-(2-carbomethoxyphenyl)-7-(thienyl-2-acetamido)cephalosporanic acid amide] | < 3.0 | 9.0 | ≥ 12.5 µg/mL | 6.4 | ≥ 100 µg/mL | 8.0 | + (1-33) | 8.2 | 6.5 |  | 
3 | COC(=O)CNC(=O)c1ccc(NC(=O)C2=C(COC(C)=O)CSC3C(NC(=O)Cc4cccs4)C(=O)N23)cc1 (centres unmarked) [Example 9, N-(4-carbomethoxymethylcarbamoylphenyl)-7-(thienyl-2-acetamido)cephalosporanic acid amide] | < 3.0 | 9.3 | ≥ 12.5 µg/mL | 7.1 | ≥ 100 µg/mL | 8.1 | +++ (66-100) | 8.6 | 6.5 |  | 
4 | CCOC(=O)c1ccc(NC(=O)C2=C(COC(C)=O)CSC3C(NC(=O)Cc4cccs4)C(=O)N23)cc1 (centres unmarked) [Example 3, N-(4-carboethoxyphenyl)-7-(thienyl-2-acetamido)cephalosporanic acid amide] | < 3.0 | 9.0 | ≥ 12.5 µg/mL | 6.5 | ≥ 100 µg/mL | 8.1 | ++ (33-66) | 8.3 | 6.5 |  | 
5 | CC(=O)OCC1=C(C(=O)O)N2C(=O)[C@@H](NC(=O)Cc3cccs3)[C@H]2SC1 [Cephalotin, cephalotin, reference compound] | < 3.0 | 4.1 |  | 9.0 |  | 7.2 |  | 9.2 | 9.9 | decreased | increased
